Results taken from US11541056B2, “3-hydroxy-N-(3-(7H-pyrrolo[2,3-d]pyrimidin-4-yl)phenyl)pyrrolidine-1-carboxamide derivatives” (NOVARTIS AG, priority 2018, dated 2023).
Where two headings read alike, the source gives them in different places.

Legend:
Type in all cases: cell-based
[1] = biological target: T1, BTK-GFP (Homo sapiens, UniProt Q06187+Q96SW2); test: BTK-GFP protein abundance flow cytometry assay in HEK293A cells; details: 24 h; for BTK deg Amax %: % protein remaining at concentration of maximum degradation; for DC50: concentration at which 50% maximal degradation was observed
T1 construct: the BTK open reading frame (ORF) was first shuttled from a pcDNA-DEST40-BTK vector (Invitrogen library ID INV_20090504v1); expressed in transfected cells; host or cells: HEK293A cells (Invitrogen R70507), lentiviral transduction with pLenti6-BTK-GFP-Ires-RFP, blasticidin-selected
T1 sequence (Q06187 whole entry): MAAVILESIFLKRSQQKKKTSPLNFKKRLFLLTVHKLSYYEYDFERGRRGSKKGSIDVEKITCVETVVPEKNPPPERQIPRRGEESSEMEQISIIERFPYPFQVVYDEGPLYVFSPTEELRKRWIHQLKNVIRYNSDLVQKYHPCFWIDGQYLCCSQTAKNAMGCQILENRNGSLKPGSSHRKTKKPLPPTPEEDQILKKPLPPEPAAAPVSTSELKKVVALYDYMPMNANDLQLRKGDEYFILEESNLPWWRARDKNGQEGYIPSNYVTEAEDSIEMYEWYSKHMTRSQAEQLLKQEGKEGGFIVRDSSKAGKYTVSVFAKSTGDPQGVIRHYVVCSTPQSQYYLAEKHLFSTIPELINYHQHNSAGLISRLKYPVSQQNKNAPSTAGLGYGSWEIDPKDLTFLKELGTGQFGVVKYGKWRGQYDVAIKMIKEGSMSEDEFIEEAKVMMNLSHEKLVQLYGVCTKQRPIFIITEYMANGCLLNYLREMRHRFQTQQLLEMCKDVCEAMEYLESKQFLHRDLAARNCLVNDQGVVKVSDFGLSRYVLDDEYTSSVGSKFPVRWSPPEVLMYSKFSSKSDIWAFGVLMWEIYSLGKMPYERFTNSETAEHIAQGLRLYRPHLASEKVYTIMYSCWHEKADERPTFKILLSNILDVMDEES
T1 sequence (Q96SW2 whole entry): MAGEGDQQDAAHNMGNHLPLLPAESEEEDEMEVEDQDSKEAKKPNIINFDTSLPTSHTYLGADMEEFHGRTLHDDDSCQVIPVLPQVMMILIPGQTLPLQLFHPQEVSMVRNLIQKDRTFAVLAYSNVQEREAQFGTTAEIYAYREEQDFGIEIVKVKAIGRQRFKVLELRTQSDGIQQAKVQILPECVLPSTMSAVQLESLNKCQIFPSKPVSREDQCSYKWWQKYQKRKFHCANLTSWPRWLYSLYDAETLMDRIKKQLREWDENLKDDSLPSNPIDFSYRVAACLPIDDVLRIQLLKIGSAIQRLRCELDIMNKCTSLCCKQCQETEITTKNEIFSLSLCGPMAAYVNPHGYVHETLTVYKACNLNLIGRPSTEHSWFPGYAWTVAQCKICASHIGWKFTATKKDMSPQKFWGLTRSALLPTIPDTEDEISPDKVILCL
T1 sequence (Q16531 whole entry partner): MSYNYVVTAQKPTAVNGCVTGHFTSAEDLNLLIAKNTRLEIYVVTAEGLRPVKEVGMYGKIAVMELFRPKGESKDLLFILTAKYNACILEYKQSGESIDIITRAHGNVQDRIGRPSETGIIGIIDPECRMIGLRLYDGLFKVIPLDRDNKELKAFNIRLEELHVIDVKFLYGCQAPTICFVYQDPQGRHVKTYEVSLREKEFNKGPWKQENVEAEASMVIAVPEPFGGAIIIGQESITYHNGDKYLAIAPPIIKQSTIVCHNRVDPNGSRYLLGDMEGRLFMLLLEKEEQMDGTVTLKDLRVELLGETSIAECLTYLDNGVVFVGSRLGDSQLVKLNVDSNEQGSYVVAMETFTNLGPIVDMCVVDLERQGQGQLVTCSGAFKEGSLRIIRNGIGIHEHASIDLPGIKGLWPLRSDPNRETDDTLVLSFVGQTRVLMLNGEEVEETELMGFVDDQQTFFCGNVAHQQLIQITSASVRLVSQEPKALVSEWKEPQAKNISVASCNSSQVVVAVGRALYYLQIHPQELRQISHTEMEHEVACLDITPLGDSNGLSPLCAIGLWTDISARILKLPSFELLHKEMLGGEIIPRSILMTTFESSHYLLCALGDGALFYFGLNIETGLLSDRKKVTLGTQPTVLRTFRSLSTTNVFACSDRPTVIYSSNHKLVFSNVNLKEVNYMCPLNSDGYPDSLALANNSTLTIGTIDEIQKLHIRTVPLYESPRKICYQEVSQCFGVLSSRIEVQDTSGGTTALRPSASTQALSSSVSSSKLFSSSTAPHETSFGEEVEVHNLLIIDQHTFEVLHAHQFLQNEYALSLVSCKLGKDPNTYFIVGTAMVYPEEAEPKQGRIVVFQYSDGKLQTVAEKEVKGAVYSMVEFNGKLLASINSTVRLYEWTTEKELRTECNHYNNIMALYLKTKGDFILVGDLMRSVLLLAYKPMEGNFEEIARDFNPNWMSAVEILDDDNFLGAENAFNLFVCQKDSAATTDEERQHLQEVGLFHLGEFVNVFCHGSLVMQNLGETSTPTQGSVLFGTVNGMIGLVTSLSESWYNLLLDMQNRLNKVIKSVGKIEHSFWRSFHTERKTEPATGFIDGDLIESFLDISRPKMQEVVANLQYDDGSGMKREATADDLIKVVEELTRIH
Experimental: (§1) Compounds of the invention were tested in the following cellular assays. The terms in Table 1 are defined as follows: DC50 refers to the concentration at which 50% maximal degradation was observed; deg Amax is the extent of degradation and the value refers to the % protein remaining at the concentration at which maximum degradation is seen; Prol GI50 refers to the proliferation data and defines the concentration at which 50% growth inhibition was observed compared to the vehicle treated control at the end of the incubation time. TMD8 cells are BTK dependent and OCI-LY3 cells are BTK independent.
BTK-GFP and IKZF3-GFP Protein Abundance Flow Cytometry Assay in HEK293A Cells:
Degradation of BTK or IKZF3 was measured in HEK293A cells (Invitrogen R70507) expressing either BTK-GFP and RFP or IKZF3-GFP and RFP from a stably integrated bicistronic BTK-GFP-iresRFP or IKZF3-GFP-iresRFP construct, respectively. Reduction of the GFP signal measured by flow cytometry served as readout for BTK or IKZF3 degradation after degrader treatment.
Stable HEK293A-BTK-GFP-iresRFP cells were maintained in complete growth medium (DMEM high Glucose+10% FCS+1% L-Glutamine+1% NEAA+1% NaPyr.) with passaging performed twice per week. On Day 0, HEK293A-BTK-GFP-iresRFP or HEK293A-IKZF3-GFP-iresRFP and HEK293A-iresRFP cells were seeded at 10,000 cells/well in a 96-well microtiter plate in 260 μl complete medium. On Day 1, cells were treated in duplicate with 10-point 1:3 dilution series of compound using the HP D300 Digital Dispenser (Tecan). DMSO concentrations were normalized across the plate to 0.1%. On Day 2, after 24 h of incubation at 37° C., treatment media was discarded, cells rinsed with 100 ul/well PBS and then detached using 40 ul trypsin/well for 5 min. Trypsin was neutralized with 100 ul/well PBS+20% FCS). Flow cytometry was performed on the samples using the BD FACS CANTO II (Becton Dickinson). Cell identification was then performed using forward (FSC) vs. side scatter (SSC) plots. Single cell discrimination is performed using SSC-Width (SSC-W) vs. SSC-Height (SSC-H) plots. Median GFP values for 5,000 single cells are used to determine BTK levels. Median GFP values from HEK293A-iresRFP are used as a background signal and thus defining 0% BTK signal. Median GFP values from DMSO treated HEK293A-BTK-GFP-iresRFP or HEK293A-IKZF3-GFP-iresRFP are used to define 100% BTK signal for subsequent DC50 curves (concentration at 50% BTK degradation). GFP and RFP are read in the channels called FITC and PE, respectively.
Concentration response curves plotting relative reduction of the GFP signal (measured by flow cytometry) versus 10 compound concentrations (starting concentration 10 μM, 3 fold dilution steps) of the compounds allowed generation of DC50 values.

[2] = system: OCI-LY3 cells; test: Resazurin cell viability assay in DLBCL cells (OCI-LY3); details: OCI-LY3 cells (BTK independent), 50% growth inhibition, read-out: OCI-LY3 Prol GI50
Experimental: as §1
(§2) Cell Viability Assay in DLBCL (Diffuse Large B-Cell Lymphoma) Cells:
(§3) The effect of the BTK compounds on cell proliferation was measured by a Resazurin (Sigma, #R7017) based cell viability assay. TMD8 (BTK compound sensitive) and OCI-LY3 (BTK compound insensitive) cells were incubated for 72 h at 37° C. and 5% CO2 with the corresponding compound. Resazurin is a non-toxic, cell-permeable substrate that is virtually non-fluorescent. Upon entering living cells, Resazurin (Sigma, #R7017) is reduced to highly fluorescent Resorufin. The metabolic activity was assessed by measuring the fluorescence signal (ex. 530 nm; em. 600 nm).
(§4) TMD8 and OCI-Ly3 cells were seeded at day 0 in triplicates at a cell density of 1×10^4 cells per 150 μl/well in a 96-well plate (Costar #3904). Additional plates were prepared, in order to assess the basal metabolic activity of both cell lines at the beginning of the experiment. For these reference plates, Resazurin (Sigma, #R7017) was added to a final concentration of 13 μg/ml 3 h post seeding and was incubated for 2 h at 37° C. and 5% CO2. Following incubation, the fluorescent signal intensity of the 96-well plates was measured on a Mithras LB940 multimode plate reader at 530/600 nm (Berthold Technologies, Germany).
(§5) In parallel, 3 h post-seeding, test-plates were treated with compound at various concentrations, or with vehicle (DMSO) alone for 3 days. The compound addition to the plates was performed by using a HP D300 digital dispenser (TECAN, Switzerland). The compounds were tested in triplicate, 8-point serial dilution (1:4), with a start concentration of 10 μM for OCI-LY3 and 1 μM for the TMD8 cells, respectively. To assess the relative proliferation of the cells, Resazurin was added to each well directly to the medium to a final concentration of 13 μg/ml. The plates were incubated for 2 h at 37° C. and 5% CO2 to result in a 72 h endpoint. Following incubation, the fluorescent signal intensity of the 96-well plates were measured on a Mithras LB940 multimode plate reader at 530/600 nm (Berthold Technologies, Germany). The formation of Resorufin dye directly correlates with the number of metabolically active cells. For each triplicate treatment the mean and standard deviation were calculated and analyzed via curve fitting software to determine the respective compound concentration resulting in 50% growth inhibition (GI50) values. For each compound GI50 values were typically determined from at least 2 entirely independent experiments.
OCI-LY3 cells were acquired through a license agreement with University Health Network, Toronto, Canada. Cells are cultivated in RPMI1640 media (Gibco, #61870-010, lot. 1894759), supplemented with 10% FCS (HyClone, GE #SH30066.03, lot AB217603), 2 mM L-Glutamine (BioConcept, #5-10K50-H, lot. LA03467P), 1 mM Sodium Pyruvate (BioConcept, #5-60F00-H, lot. LB10510P), 10 mM HEPES (Gibco, #15630-056, lot. 1854074), 1% Pen/Strep (BioConcept, #4-01F00-H, lot. LB04235P).

[3] = system: TMD8 cells; test: Resazurin cell viability assay in DLBCL cells (TMD8); details: TMD8 cells (BTK dependent), 50% growth inhibition, read-out: TMD8 Prol GI50
Experimental: as §1, §2, §3, §4, §5
TMD8 cells were acquired through a license agreement with Tokyo Medical and Dental University, Japan. Cells are cultivated in MEM Alpha (BioConcept, #1-23F01-I, lot. LB04262P) supplemented with 10% FCS (HyClone, GE #SH30066.03, lot AB217603), 2 mM L-Glutamine (BioConcept, #5-10K50-H, lot. LA03467P), 1% Pen/Strep (BioConcept, #4-01F00-H, lot. LB04235P).

BTK deg Amax % [1] [%]	DC50 [1] [nM]	GI50 ([2]; Homo sapiens, OCI-Ly3, 72 h) [nM]	GI50 ([2]; 72 h) [nM]	SMILES	GI50 ([3]; Homo sapiens, TMD8, 72 h) [nM]	GI50 ([3]; 72 h) [nM]
1.9	1.5	8220		COc1ccc(C(=O)N2CCC(CCN3CCC(OCc4ccc(-c5cc6c(-c7cc(F)cc(NC(=O)N8CC(O)C(CC(C)C)C8)c7C)ncnc6[nH]5)cc4)CC3)CC2)cc1N1CCC(=O)NC1=O (racemic) [Compound 4, (cis-rac)-N-(3-(6-(4-(((1-(2-(1-(3-(2,4-Dioxotetrahydropyrimidin-1 (2H)-yl)-4-methoxybenzoyl)piperidin-4-yl)ethyl)piperidin-4-yl)oxy)methyl)phenyl)-7H-pyrrolo[2,3-d]pyrimidin-4-yl)-5-fluoro-2-methylphenyl)-3-hydroxy-4-isobutylpyrrolidine-1-carboxamide]	0.34	
6.3	1.7	7150		COc1ccc(C(=O)N2CCC(CN3CCN(Cc4ccc(-c5cc6c(-c7cc(F)cc(NC(=O)N8CC(O)C(CC(C)C)C8)c7C)ncnc6[nH]5)cc4)CC3)CC2)cc1N1CCC(=O)NC1=O (racemic) [Compound 9, (cis-rac)-N-(3-(6-(4-((4-((1-(3-(2,4-Dioxotetrahydropyrimidin-1 (2H)-yl)-4-methoxybenzoyl)piperidin-4-yl)methyl)piperazin-1-yl)methyl)phenyl)-7H-pyrrolo[2,3-d]pyrimidin-4-yl)-5-fluoro-2-methylphenyl)-3-hydroxy-4-isobutylpyrrolidine-1-carboxamide]	0.75	
3.3	6.1		> 10000	COc1ccc(C(=O)N2CCC3(CCN(Cc4ccc(-c5cc6c(-c7cc(F)cc(NC(=O)N8CC(O)C(CC(C)C)C8)c7C)ncnc6[nH]5)cc4)CC3)CC2)cc1N1CCC(=O)NC1=O (racemic) [Compound 23, (cis-rac)-N-(3-(6-(4-((9-(3-(2,4-Dioxotetrahydropyrimidin-1(2H)-yl)-4-methoxybenzoyl)-3,9-diazaspiro[5.5]undecan-3-yl)methyl)phenyl)-7H-pyrrolo[2,3-d]pyrimidin-4-yl)-5-fluoro-2-methylphenyl)-3-hydroxy-4-isobutylpyrrolidine-1-carboxamide]		2.36
3	0.8	4480		COc1ccc(C(=O)N2CCC(CCN3CCC(Oc4ccc(-c5cc6c(-c7cc(F)cc(NC(=O)N8C[C@H](CC(C)C)[C@@H](O)C8)c7C)ncnc6[nH]5)cc4)CC3)CC2)cc1N1CCC(=O)NC1=O [Compound 3, (3R,4S)—N-(3-(6-(4-((1-(2-(1-(3-(2,4-Dioxotetrahydropyrimidin-1(2H)-yl)-4-methoxybenzoyl)piperidin-4-yl)ethyl)piperidin-4-yl)oxy)phenyl)-7H-pyrrolo[2,3-d]pyrimidin-4-yl)-5-fluoro-2-methylphenyl)-3-hydroxy-4-isobutylpyrrolidine-1-carboxamide]	0.19	
3.7	1.5	> 10000		COc1ccc(C(=O)N2CCC3(CCN(CCc4ccc(-c5cc6c(-c7cc(F)cc(NC(=O)N8C[C@@H](CC(C)C)[C@@H](O)C8)c7C)ncnc6[nH]5)cc4)CC3)CC2)cc1N1CCC(=O)NC1=O [Compound 7, (3R,4R)—N-(3-(6-(4-(2-(9-(3-(2,4-Dioxotetrahydropyrimidin-1(2H)-yl)-4-methoxybenzoyl)-3,9-diazaspiro[5.5]undecan-3-yl)ethyl)phenyl)-7H-pyrrolo[2,3-d]pyrimidin-4-yl)-5-fluoro-2-methylphenyl)-3-hydroxy-4-isobutylpyrrolidine-1-carboxamide]	0.28	
3.4	0.7	3820		COc1ccc(C(=O)N2CCC(CN3CCC(COc4ccc(-c5cc6c(-c7cc(F)cc(NC(=O)N8C[C@H](CC(C)C)[C@@H](O)C8)c7C)ncnc6[nH]5)cc4)CC3)CC2)cc1N1CCC(=O)NC1=O [Compound 14, (3R,4S)—N-(3-(6-(4-((1-((1-(3-(2,4-Dioxotetrahydropyrimidin-1 (2H)-yl)-4-methoxybenzoyl)piperidin-4-yl)methyl)piperidin-4-yl)methoxy)phenyl)-7H-pyrrolo[2,3-d]pyrimidin-4-yl)-5-fluoro-2-methylphenyl)-3-hydroxy-4-isobutylpyrrolidine-1-carboxamide]	0.24	
19	4.7	5220		CCOc1ccc(C(=O)N2CCC3(CCN(CCc4ccc(-c5cc6c(-c7cc(F)cc(NC(=O)N8C[C@H](CC(C)C)[C@@H](O)C8)c7C)ncnc6[nH]5)cc4)CC3)CC2)cc1N1CCC(=O)NC1=O [Compound 16, (3R,4S)—N-(3-(6-(4-(2-(9-(3-(2,4-dioxotetrahydropyrimidin-1(2H)-yl)-4-ethoxybenzoyl)-3,9-diazaspiro[5.5]undecan-3-yl)ethyl)phenyl)-7H-pyrrolo[2,3-d]pyrimidin-4-yl)-5-fluoro-2-methylphenyl)-3-hydroxy-4-isobutylpyrrolidine-1-carboxamide]	0.26	
